From ChEMBL document CHEMBL1201862, “PubChem BioAssay data set” (2004) come the findings set out here.

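Step 1: Grow cells in 96-well plates. Step 2: Expose to compound for 48 hours at 5 concentrations. Step 3: Interpolate endpoints linearly; if unreached, use highest concentration. GI50 is the concentration that inhibits growth by half.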 Calls of active or inactive are those of the source. Cut-off read from the data, not from the text of the source: active = GI50 up to about 1.1 µM and inactive = higher.

Holding throughout (assay): growth of human tumour cells (NCI), 48 h
The subject of assay [1] is UACC-257.
Assay [2] has as its system MDA-MB-435.
In assay [3] the test system is Hs-578T.
For assay [4], the system named is HCC 2998.
In assay [5] the test system is NCI-H23.
In assay [6] the test system is HOP-92.
Assay [7] has as its system NCI/ADR-RES.
Assay [8] has as its system HT-29.
The subject of assay [9] is SK-MEL-2.
The subject of assay [10] is CCRF-CEM.
For assay [11], the system named is NCI-H522.
For assay [12], the system named is ACHN.
Assay [13] concerns U-251.
Assay [14] relates to Malme-3M.
For assay [15], the system named is SR.
In assay [16] the test system is HOP-62.
The subject of assay [17] is RXF 393.
In assay [18] the test system is BT-549.
For assay [19], the system named is OVCAR-4.

Regarding `CNC(=O)OCc1c(COC(=O)NC)c(C)n(-c2ccc(Br)cc2)c1C`, the GI50 in [1] is 15.3 µM (inactive); in assay [2], 16.8 µM (inactive); in assay [3] it was 16.2 µM (inactive); in assay [4] it was 15.2 µM (inactive); in assay [5] it was 14.3 µM (inactive); in assay [6], 7.76 µM (inactive). For the same compound, the GI50 in assay [7] is 16.3 µM (inactive); in [8] it was 5.57 µM (inactive); in assay [9], 15.5 µM (inactive); in assay [10], 4.85 µM (inactive); in [11], 10.2 µM (inactive); in assay [12], 3.26 µM (inactive). The GI50 in assay [13] is 10.7 µM (inactive); in assay [14], 17.6 µM (inactive); in [15], 1.38 µM (inactive); in [16], 13.2 µM (inactive); in assay [17], 5.37 µM (inactive).

On to `O=C(NNC(=S)NCc1ccccc1)c1csc(NC(=S)NC2CCCCC2)n1`, for which the GI50 is 18.6 µM (inactive) in assay [1]; 26.7 µM (inactive) in assay [2]; 37.3 µM (inactive) in assay [4]; 43 µM (inactive) in [5]; 31.3 µM (inactive) in assay [7]; 3.42 µM (inactive) in [8]. Also, the GI50 in [9] was 27 µM (inactive); in [10], 46.2 µM (inactive); in assay [11] it was 35.1 µM (inactive); in assay [18], 36.9 µM (inactive); in assay [12], 38.2 µM (inactive); in assay [13], 33.3 µM (inactive). In addition, the GI50 in assay [14] is 38.6 µM (inactive); in assay [15], 31.5 µM (inactive); in assay [16] it was 64.1 µM (inactive).

Turning to `O=C(CP(=O)(c1ccccc1)c1ccccc1)c1cccc(C(=O)CP(=O)(c2ccccc2)c2ccccc2)c1`, the GI50 in assay [1] is > 100 µM (inactive); in [2] it was > 100 µM (inactive); in [3], 25.6 µM (inactive); in [4], > 100 µM (inactive); in assay [7] it was > 100 µM (inactive); in assay [8], > 100 µM (inactive). The GI50 is 49.9 µM (inactive) in [9]; > 100 µM (inactive) in [10]; > 100 µM (inactive) in [12]; > 100 µM (inactive) in assay [19]; > 10 µM (inactive) in assay [13]; > 100 µM (inactive) in assay [15]. Further, the GI50 is 34.4 µM (inactive) in [16] and 24.7 µM (inactive) in [17].

As to `C/C(=N\NC(=S)N1CCCCC1)c1cccc(C)n1`, the GI50 in [1] was < 0.01 µM (active); in [2], 0.0944 µM (active); in [3], 22.3 µM (inactive); in assay [4], 0.082 µM (active); in [5], < 0.01 µM (active); in assay [6] it was 0.169 µM (active). The GI50 was < 0.01 µM (active) in assay [7]; < 0.01 µM (active) in assay [8]; 0.515 µM (active) in assay [9]; < 0.0106 µM (active) in assay [10]; < 0.01 µM (active) in assay [11]; < 0.012 µM (active) in assay [12]. Moreover, the GI50 in [19] was 36.5 µM (inactive); in assay [13], < 0.01 µM (active); in [14] it was < 0.0197 µM (active); in [15] it was < 0.0173 µM (active); in assay [16], < 0.01 µM (active); in assay [17], 0.238 µM (active).

As for `O=C(/C(=C\C(=O)c1cccs1)c1ccsc1)c1ccc(Br)cc1`, the GI50 in assay [1] is 42.8 µM (inactive); in assay [2], > 100 µM (inactive); in [3] it was > 100 µM (inactive); in assay [4], > 100 µM (inactive); in assay [5], 80.2 µM (inactive); in [7] it was 88.5 µM (inactive). Further, the GI50 in assay [8] is 80 µM (inactive); in assay [9] it was > 100 µM (inactive); in assay [10] it was > 100 µM (inactive); in assay [12] it was > 100 µM (inactive); in assay [19], > 10 µM (inactive); in assay [13] it was > 100 µM (inactive). For the same compound, the GI50 in assay [14] was 60.1 µM (inactive); in [15], > 100 µM (inactive); in [16] it was > 100 µM (inactive).

`C=CC1CN(C(=O)OCC)N(C(=O)OCC)C1CCc1ccccc1` (stereo unspecified): the GI50 was > 100 µM (inactive) in [1]; > 100 µM (inactive) in assay [2]; > 100 µM (inactive) in assay [3]; > 100 µM (inactive) in [4]; 61.9 µM (inactive) in assay [5]; 53.5 µM (inactive) in assay [6]. The GI50 in assay [7] was 85.1 µM (inactive); in [8], > 100 µM (inactive); in assay [9], > 100 µM (inactive); in [10] it was 72.4 µM (inactive); in [11], 39.3 µM (inactive); in assay [12], > 100 µM (inactive). Also, the GI50 is 57.4 µM (inactive) in [19]; > 100 µM (inactive) in [13]; > 100 µM (inactive) in [14]; 65.9 µM (inactive) in assay [15]; > 100 µM (inactive) in assay [16].

In the case of `CCOC(=O)c1c(C)cc(=O)n2c1[nH]c1ccccc12`, the GI50 in assay [1] was > 100 µM (inactive); in assay [4], 78.7 µM (inactive); in assay [5], > 100 µM (inactive); in assay [6] it was > 100 µM (inactive); in [7] it was > 100 µM (inactive); in [8], > 100 µM (inactive). Moreover, the GI50 in assay [9] is > 100 µM (inactive); in assay [10] it was > 100 µM (inactive); in assay [18] it was > 100 µM (inactive); in [12], 42.5 µM (inactive); in assay [13], 34.6 µM (inactive); in [14] it was > 100 µM (inactive). The GI50 in assay [17] is > 100 µM (inactive).

On to `CC1=C(C(=O)NNC(=O)Cc2ccccc2)CC(C(=O)NNC(=O)Cc2ccccc2)=C(C)N1`, for which the GI50 in [1] is > 100 µM (inactive); in [2], 89.1 µM (inactive); in assay [4], > 100 µM (inactive); in assay [5], > 100 µM (inactive); in assay [6], > 100 µM (inactive); in assay [7], > 100 µM (inactive). Besides, the GI50 in assay [8], in assay [9], in assay [18], in assay [12], in assay [19] and in [13] was > 100 µM (inactive) throughout. In addition, the values for the GI50 in assay [16] and in assay [17] were > 100 µM (inactive) and 47.8 µM (inactive), respectively.

For the compound `COc1ccc(C2[C@@H](Cl)C(=O)N2c2ccc(OC)cc2)cc1` (stereo partly specified), the GI50 was 46 µM (inactive) in [1]; > 100 µM (inactive) in assay [4]; > 100 µM (inactive) in assay [5]; 11.6 µM (inactive) in [6]; > 100 µM (inactive) in assay [8]; 62.5 µM (inactive) in assay [9]. Besides, the GI50 in assay [10] was 39.1 µM (inactive); in assay [11], 36 µM (inactive); in [12], 41.8 µM (inactive); in [13] it was > 100 µM (inactive); in assay [14], 45.9 µM (inactive); in assay [15], 40.5 µM (inactive). Moreover, the GI50 in assay [17] is 22.4 µM (inactive).
